Read-outs that look alike come from different tables or passages of the source.
Target: T1, human somatostatin receptor subtype 2 (Homo sapiens, UniProt P30874)
T1 construct: expressed in transfected cells
Experiment: Functional cAMP assay for SSTR2 agonists (HTRF) in CHO-K1 cells
Type: cell-based
Conditions: CHO-K1 cells stably expressing human SST2, 20 min
Source text: General overview: All five SSTR subtypes are Gi coupled G-protein coupled receptors (GPCRs) that lead to decreases in intracellular cyclic AMP (cAMP) when activated by an agonist. Therefore, measurement of intracellular cAMP levels can be used to assess whether compounds of the invention are agonists of SSTR subtypes (John Kelly, Troy Stevens, W. Joseph Thompson, and Roland Seifert, Current Protocols in Pharmacology, 2005, 2.2.1-2.2). One example of an intracellular cAMP assay is described below.
Functional Assay for SSTR2 Agonists
Four days prior to the assay, 2,000 Chinese hamster ovary cells (CHO-K1, ATCC #CCL-61) stably expressing the human somatostatin receptor subtype 2 are plated in each well of a 96-well tissue culture-treated plate in Ham's F12 growth media (ThermoFisher #10-080-CM) supplemented with 10% donor bovine serum (Gemini Bio-Products #100-506), 100 U/mL penicillin; 100 ug/mL streptomycin; 2 mM L-glutamine (Gemini Bio-Products #400-110) and 0.2 mg/mL hygromycin B (GoldBio #31282-04-9). The cells are cultured at 37° C., 5% CO2 and 95% humidity. cAMP is measured with HTRF dynamic cAMP assay (Cisbio, #62AM5PEJ) per manufacturer's instructions. On the day of the assay, the media is aspirated and the cells are treated with 50 μL of stimulation buffer supplemented with 10.2 mM 3-Isobutyl-1-methylxanthine (IBMX, Millipore Sigma #15879) and 1.6 μM NKH477 (Tocris #1603), plus various dilutions of SMDCs of the present invention. The cells are incubated for 20 minutes at 37° C. (the final concentration of the compounds of the invention are typically 0-10,000 nM). The cells are treated with 50 μL of lysis buffer (HRTF cAMP kit, Cisbio) and incubated at room temperature for 30 minutes with rotary shaking at 600 rpm, and then diluted with 150 μL of stimulation buffer and shaken for an additional five minutes at 300 rpm. The lysate is transferred to 384-well plates and incubated for 1-24 hours at room temperature, and cAMP accumulation is detected by d2-labeled cAMP and Anti-cAMP-Cryptate. The time-resolved fluorescent signal is read using a m1000 Pro (Tecan) or CLARIOStar (BMG Labtech) microplate reader, where the samples are excited with light at 340 nm and emission light is measured at 620 nm and 665 nm. The data is expressed as a calculation of the fluorescence ratio (665 nm/620 nm). The intracellular cAMP concentrations are calculated by regression to a standard curve and are plotted vs. the concentration of the compounds of the invention. The EC50 of the compounds are calculated using standard methods. All data manipulations are in GraphPad Prism v9 (GraphPad, San Diego, CA).

T1 sequence (P30874 whole entry): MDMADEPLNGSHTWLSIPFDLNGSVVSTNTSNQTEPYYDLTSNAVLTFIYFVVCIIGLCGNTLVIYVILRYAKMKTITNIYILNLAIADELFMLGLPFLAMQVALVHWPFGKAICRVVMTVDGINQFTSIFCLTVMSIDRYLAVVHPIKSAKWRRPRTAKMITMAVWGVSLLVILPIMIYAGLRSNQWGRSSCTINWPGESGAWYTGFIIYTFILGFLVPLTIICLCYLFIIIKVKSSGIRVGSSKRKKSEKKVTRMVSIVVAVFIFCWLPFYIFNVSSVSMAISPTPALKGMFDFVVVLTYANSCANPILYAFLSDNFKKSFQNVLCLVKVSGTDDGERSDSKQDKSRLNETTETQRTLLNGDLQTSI

`CC[C@@]1(O)C(=O)OCc2c1cc1n(c2=O)Cc2c-1nc1cc(F)c(C)c3c1c2[C@@H](NC(=O)OCc1ccc(NC(=O)[C@H](CCCNC(N)=O)NC(=O)[C@@H](NC(=O)CCOCCOCCOCCOCCC(=O)NCCNc2ncc(-c4cc(C)cc(F)c4)c(N4CCC(N)CC4)c2-c2nc4ccc(Cl)cc4[nH]2)C(C)C)c(O[C@@H]2O[C@H](C(=O)O)[C@@H](O)[C@H](O)[C@H]2O)c1)CC3` [Compound 74] was tested, and the EC50 (hSST2 cAMP Avg EC50 (nM)) was 0.31 nM.

Compound `Cc1cc(F)cc(-c2cnc(NCCOC(=O)NCCOCCOCCOCCOCCOCCNC(=O)CN3CCN(CC(=O)O)CCN(CC(=O)O)CCN(CC(=O)O)CC3)c(-c3nc4cc(Cl)ccc4[nH]3)c2N2CCC(N)CC2)c1` [Comp. 2, 2-(7-{[(17-{[(2-{[4-(4-aminopiperidin-1-yl)-3-(5-chloro-1H-1,3-benzodiazol-2-yl)-5-(3-fluoro-5-methylphenyl)pyridin-2-yl]amino}ethoxy)carbonyl]amino}-3,6,9,12,15-pentaoxaheptadecan-1-yl)carbamoyl]methyl}-4,10-bis(carboxymethyl)-1,4,7,10-tetraazacyclododecan-1-yl)acetic acid, reference compound] has an EC50 (read-out: hSST2 cAMP Avg EC50) of 0.17 nM.

`Cc1cc(F)cc(-c2cnc(NCCOCCOCCOCCOCCNC(=O)CN3CCN(CC(=O)O)CCN(CC(=O)O)CCN(CC(=O)O)CC3)c(-c3ccc(C(F)(F)F)cc3)c2N2CCC(N)CC2)c1` [Compound 5, 2-(4-{[(14-{[4-(4-aminopiperidin-1-yl)-5-(3-fluoro-5-methylphenyl)-3-[4-(trifluoromethyl)phenyl]pyridin-2-yl]amino}-3,6,9,12-tetraoxatetradecan-1-yl)carbamoyl]methyl}-7,10-bis(carboxymethyl)-1,4,7,10-tetraazacyclododecan-1-yl)acetic acid] was tested, and the EC50 (read-out: hSST2 cAMP Avg EC50) was 0.66 nM.

Work on `Cc1cc(F)cc(-c2cnc(NCCNC(=O)CCOCCOCCOCCOCCOCCNC(=O)CN3CCN(CC(=O)O)CCN(CC(=O)O)CCN(CC(=O)O)CC3)c(-c3nc4cc(Cl)ccc4[nH]3)c2N2CCC(N)CC2)c1` [Comp. 1, 2-{7-[({17-[(2-{[4-(4-aminopiperidin-1-yl)-3-(5-chloro-1H-1,3-benzodiazol-2-yl)-5-(3-fluoro-5-methylphenyl)pyridin-2-yl]amino}ethyl)carbamoyl]-3,6,9,12,15-pentaoxaheptadecan-1-yl}carbamoyl)methyl}-4,10-bis(carboxymethyl)-1,4,7,10-tetraazacyclododecan-1-yl}acetic acid, reference compound] yielded an EC50 (read-out: hSST2 cAMP Avg EC50) of 0.075 nM.

Work on `Cc1cc(F)cc(-c2cnc(NCCNC(=O)CCOCCOCCOCCOCCOCCNC(=O)CN3CCN4CCN5CCN(CC3)CC(=O)[O][In]([O]C(=O)C4)[O]C(=O)C5)c(-c3nc4cc(Cl)ccc4[nH]3)c2N2CCC(N)CC2)c1` [Compound 15, N-(2-{[4-(4-aminopiperidin-1-yl)-3-(5-chloro-1H-1,3-benzodiazol-2-yl)-5-(3-fluoro-5-methylphenyl)pyridin-2-yl]amino}ethyl)-1-(2-{3,16,19-trioxo-2,17,18-trioxa-5,8,11,14-tetraaza-1-indatricyclo[9.6.3.2^5,14]docosan-8-yl}acetamido)-3,6,9,12,15-pentaoxaoctadecan-18-amide] yielded an EC50 (read-out: hSST2 cAMP Avg EC50) of 0.057 nM.

Work on `Cc1cc(F)cc(-c2cnc(NCCOCCOCCOCCOCCNC(=O)CN3CCN4CCN5CCN(CC3)CC(=O)[O][In]([O]C(=O)C4)[O]C(=O)C5)c(-c3ccc(C(F)(F)F)cc3)c2N2CCC(N)CC2)c1` [Compound 18, N-(14-{[4-(4-aminopiperidin-1-yl)-5-(3-fluoro-5-methylphenyl)-3-[4-(trifluoromethyl)phenyl]pyridin-2-yl]amino}-3,6,9,12-tetraoxatetradecan-1-yl)-2-{3,16,19-trioxo-2,17,18-trioxa-5,8,11,14-tetraaza-1-indatricyclo[9.6.3.2^5,^14]docosan-8-yl}acetamide] yielded an EC50 (read-out: hSST2 cAMP Avg EC50) of 1.8 nM.

Compound `CC[C@@]1(O)C(=O)OCc2c1cc1n(c2=O)Cc2c-1nc1cc(F)c(C)c3c1c2[C@@H](NC(=O)OCc1ccc(NC(=O)[C@H](CCCNC(N)=O)NC(=O)[C@@H](NC(=O)CCOCCC(=O)NCCNc2ncc(-c4cc(C)cc(F)c4)c(N4CCC(N)CC4)c2-c2nc4ccc(Cl)cc4[nH]2)C(C)C)c(O[C@@H]2O[C@H](C(=O)O)[C@@H](O)[C@H](O)[C@H]2O)c1)CC3` [Compound 73] has an EC50 (hSST2 cAMP Avg EC50 (nM)) of 0.49 nM.

Compound `Cc1cc(F)cc(-c2cnc(NC3CCN(C(=O)CCOCCOCCOCCOCCOCCOCCNC(=O)CN4CCN5CCN6CCN(CC4)CC(=O)[O][In]([O]C(=O)C5)[O]C(=O)C6)CC3)c(-c3nc4cc(Cl)ccc4[nH]3)c2N2CCC(N)CC2)c1` [Compound 17, N-[21-(4-{[4-(4-aminopiperidin-1-yl)-3-(5-chloro-1H-1,3-benzodiazol-2-yl)-5-(3-fluoro-5-methylphenyl)pyridin-2-yl]amino}piperidin-1-yl)-21-oxo-3,6,9,12,15,18-hexaoxahenicosan-1-yl]-2-{3,16,19-trioxo-2,17,18-trioxa-5,8,11,14-tetraaza-1-indatricyclo[9.6.3.2^5,^14]docosan-8-yl}acetamide] has an EC50 (read-out: hSST2 cAMP Avg EC50) of 0.1 nM.

In the case of `COCCOCCOCCOCCOCCC(=O)NCCNc1ncc(-c2cc(C)cc(F)c2)c(N2CCC(N)CC2)c1-c1nc2ccc(Cl)cc2[nH]1` [Compound 14, N-(2-{[4-(4-aminopiperidin-1-yl)-3-(6-chloro-1H-1,3-benzodiazol-2-yl)-5-(3-fluoro-5-methylphenyl)pyridin-2-yl]amino}ethyl)-2,5,8,11,14-pentaoxaheptadecan-17-amide], the EC50 (read-out: hSST2 cAMP Avg EC50) is reported as 0.048 nM.

In the case of `Cc1cc(F)cc(-c2cnc(NCCCNC(=O)CCOCCOCCOCCOCCOCCNC(=O)CN3CCN4CCN5CCN(CC3)CC(=O)[O][In]([O]C(=O)C4)[O]C(=O)C5)c(-c3nc4cc(Cl)ccc4[nH]3)c2N2CCC(N)CC2)c1` [Compound 16, N-(3-{[4-(4-aminopiperidin-1-yl)-3-(5-chloro-1H-1,3-benzodiazol-2-yl)-5-(3-fluoro-5-methylphenyl)pyridin-2-yl]amino}propyl)-1-(2-{3,16,19-trioxo-2,17,18-trioxa-5,8,11,14-tetraaza-1-indatricyclo[9.6.3.2^5,^14]docosan-8-yl}acetamido)-3,6,9,12,15-pentaoxaoctadecan-18-amide], the EC50 (read-out: hSST2 cAMP Avg EC50) is reported as 0.11 nM.

`Cc1cc(F)cc(-c2cnc(NC3CCN(C(=O)CCOCCOCCOCCOCCOCCOCCNC(=O)CN4CCN(CC(=O)O)CCN(CC(=O)O)CCN(CC(=O)O)CC4)CC3)c(-c3nc4cc(Cl)ccc4[nH]3)c2N2CCC(N)CC2)c1` [Compound 4, 2-[7-({[21-(4-{[4-(4-aminopiperidin-1-yl)-3-(5-chloro-1H-1,3-benzodiazol-2-yl)-5-(3-fluoro-5-methylphenyl)pyridin-2-yl]amino}piperidin-1-yl)-21-oxo-3,6,9,12,15,18-hexaoxahenicosan-1-yl]carbamoyl}methyl)-4,10-bis(carboxymethyl)-1,4,7,10-tetraazacyclododecan-1-yl]acetic acid] was tested, and the EC50 (read-out: hSST2 cAMP Avg EC50) was 0.2 nM.

`Cc1cc(F)cc(-c2cnc(NCCCNC(=O)CCOCCOCCOCCOCCOCCNC(=O)CN3CCN(CC(=O)O)CCN(CC(=O)O)CCN(CC(=O)O)CC3)c(-c3nc4cc(Cl)ccc4[nH]3)c2N2CCC(N)CC2)c1` [Compound 3, 2-{7-[{{17-[(3-{[4-(4-aminopiperidin-1-yl)-3-(5-chloro-1H-1,3-benzodiazol-2-yl)-5-(3-fluoro-5-methylphenyl)pyridin-2-yl]amino}propyl)carbamoyl]-3,6,9,12,15-pentaoxaheptadecan-1-yl}carbamoyl)methyl]-4,10-bis(carboxymethyl)-1,4,7,10-tetraazacyclododecan-1-yl}acetic acid] showed an EC50 (read-out: hSST2 cAMP Avg EC50) of 0.14 nM.

Reference: patent publication US12134610B2, “Somatostatin subtype-2 receptor (SST2R) targeted therapeutics and uses thereof” (priority 2022, dated 2024)
